Organism: Rattus norvegicus
Experiment: Open TG-GATES - Regimen: Daily Repeat
Assay type: toxicity, organism-based, Sprague-Dawley
Parameters: regimen Daily Repeat, gender Male, age 6 weeks
Settings: in vivo, po, 40 mg/kg, route gavage, dose level Low; for APTT / Bas / Eos / Fbg / Hb / Ht / Lym / MCH / MCHC / MCV / Mono / Neu / PT / Plat / RBC / Ret / WBC: tissue Blood; for KIDNEY_L / KIDNEY_R / KIDNEY_TOTAL: tissue Kidney; for LIVER: tissue Liver; for A/G / ALP / ALT / AST / BUN / CRE / Ca / Cl / DBIL / GLC / IP / K / LDH / Na / PL / RALB / TBIL / TC / TG / TP / gamma-GTP: tissue Plasma

COc1ccc(Cc2nccc3cc(OC)c(OC)cc23)cc1OC [PAPAVERINE]
TERMINAL_BW (72 h, time 3 day): 246.9 g
APTT (72 h, time 3 day): 21.6 s
Bas (72 h, time 3 day): 0%
Eos (72 h, time 3 day): 0.6%
Fbg (72 h, time 3 day): 325.8 mg/dL
Hb (72 h, time 3 day): 13.1 g/dL
Ht (72 h, time 3 day): 39.6%
Lym (72 h, time 3 day): 77.6%
MCH (72 h, time 3 day): 21.1 pg
MCHC (72 h, time 3 day): 33.2%
MCV (72 h, time 3 day): 63.6 fL
Mono (72 h, time 3 day): 2.8%
Neu (72 h, time 3 day): 18%
PT (72 h, time 3 day): 15.5 s
Plat (72 h, time 3 day): 124.7 x10_4/uL
RBC (72 h, time 3 day): 624.6 x10_4/ul
Ret (72 h, time 3 day): 6.8%
WBC (72 h, time 3 day): 102.4 x10_2/uL
KIDNEY_L (72 h, time 3 day): 1 g
KIDNEY_R (72 h, time 3 day): 1.1 g
KIDNEY_TOTAL (72 h, time 3 day): 2.1 g
LIVER (72 h, time 3 day): 11.6 g
A/G (72 h, time 3 day): 1.2
ALP (72 h, time 3 day): 1776.4 IU/L
ALT (72 h, time 3 day): 44.2 IU/L
AST (72 h, time 3 day): 73 IU/L
BUN (72 h, time 3 day): 17 mg/dL
CRE (72 h, time 3 day): 0.1 mg/dL
Ca (72 h, time 3 day): 10.9 mg/dL
Cl (72 h, time 3 day): 107.6 meq/L
DBIL (72 h, time 3 day): 0 mg/dL
GLC (72 h, time 3 day): 185.4 mg/dL
IP (72 h, time 3 day): 7.5 mg/dL
K (72 h, time 3 day): 4.5 meq/L
LDH (72 h, time 3 day): 184 IU/L
Na (72 h, time 3 day): 142.2 meq/L
PL (72 h, time 3 day): 153.4 mg/dL
RALB (72 h, time 3 day): 3 g/dL
TBIL (72 h, time 3 day): 0.008 mg/dL
TC (72 h, time 3 day): 77.8 mg/dL
TG (72 h, time 3 day): 126 mg/dL
TP (72 h, time 3 day): 5.6 g/dL
gamma-GTP (72 h, time 3 day): 1.4 IU/L
TERMINAL_BW ([…], time 7 day): 281.8 g
TERMINAL_BW ([…], time 14 day): 316.9 g
TERMINAL_BW ([…], time 28 day): 422.2 g
APTT ([…], time 7 day): 21.6 s
Bas ([…], time 7 day): 0%
Eos ([…], time 7 day): 1%
Fbg ([…], time 7 day): 317.8 mg/dL
Hb ([…], time 7 day): 13.1 g/dL
Ht ([…], time 7 day): 38.8%
Lym ([…], time 7 day): 80.2%
MCH ([…], time 7 day): 20.8 pg
MCHC ([…], time 7 day): 33.7%
MCV ([…], time 7 day): 61.8 fL
Mono ([…], time 7 day): 2.2%
Neu ([…], time 7 day): 15.8%
PT ([…], time 7 day): 15.4 s
Plat ([…], time 7 day): 123 x10_4/uL
RBC ([…], time 7 day): 628 x10_4/ul
Ret ([…], time 7 day): 6.3%
WBC ([…], time 7 day): 124.1 x10_2/uL
APTT ([…], time 14 day): 23 s
Bas ([…], time 14 day): 0%
Eos ([…], time 14 day): 0.6%
Fbg ([…], time 14 day): 342.6 mg/dL
Hb ([…], time 14 day): 14.2 g/dL
Ht ([…], time 14 day): 41.8%
Lym ([…], time 14 day): 79%
MCH ([…], time 14 day): 19.7 pg
MCHC ([…], time 14 day): 34%
MCV ([…], time 14 day): 57.9 fL
Mono ([…], time 14 day): 2%
Neu ([…], time 14 day): 16.6%
PT ([…], time 14 day): 15.6 s
Plat ([…], time 14 day): 111.2 x10_4/uL
RBC ([…], time 14 day): 722.6 x10_4/ul
Ret ([…], time 14 day): 4.6%
WBC ([…], time 14 day): 128.3 x10_2/uL
APTT ([…], time 28 day): 25.2 s
Bas ([…], time 28 day): 0%
Eos ([…], time 28 day): 1%
Fbg ([…], time 28 day): 319 mg/dL
Hb ([…], time 28 day): 14.5 g/dL
Ht ([…], time 28 day): 43.8%
Lym ([…], time 28 day): 80%
MCH ([…], time 28 day): 19.1 pg
MCHC ([…], time 28 day): 33.1%
MCV ([…], time 28 day): 57.7 fL
Mono ([…], time 28 day): 1.8%
Neu ([…], time 28 day): 15.8%
PT ([…], time 28 day): 15.8 s
Plat ([…], time 28 day): 105.3 x10_4/uL
RBC ([…], time 28 day): 760.4 x10_4/ul
Ret ([…], time 28 day): 3.1%
WBC ([…], time 28 day): 151.9 x10_2/uL
KIDNEY_L ([…], time 7 day): 1.2 g
KIDNEY_R ([…], time 7 day): 1.2 g
KIDNEY_TOTAL ([…], time 7 day): 2.4 g
KIDNEY_L ([…], time 14 day): 1.2 g
KIDNEY_R ([…], time 14 day): 1.2 g
KIDNEY_TOTAL ([…], time 14 day): 2.5 g
KIDNEY_L ([…], time 28 day): 1.4 g
KIDNEY_R ([…], time 28 day): 1.5 g
KIDNEY_TOTAL ([…], time 28 day): 2.9 g
LIVER ([…], time 7 day): 13.2 g
LIVER ([…], time 14 day): 14.1 g
LIVER ([…], time 28 day): 17.3 g
A/G ([…], time 7 day): 1.2
ALP ([…], time 7 day): 1841.6 IU/L
ALT ([…], time 7 day): 40.6 IU/L
AST ([…], time 7 day): 67.2 IU/L
BUN ([…], time 7 day): 19.8 mg/dL
CRE ([…], time 7 day): 0.1 mg/dL
Ca ([…], time 7 day): 10.8 mg/dL
Cl ([…], time 7 day): 106 meq/L
DBIL ([…], time 7 day): 0 mg/dL
GLC ([…], time 7 day): 189.6 mg/dL
IP ([…], time 7 day): 6.8 mg/dL
K ([…], time 7 day): 4.5 meq/L
LDH ([…], time 7 day): 157 IU/L
Na ([…], time 7 day): 140.8 meq/L
PL ([…], time 7 day): 155.6 mg/dL
RALB ([…], time 7 day): 3 g/dL
TBIL ([…], time 7 day): 0.002 mg/dL
TC ([…], time 7 day): 76.4 mg/dL
TG ([…], time 7 day): 132.6 mg/dL
TP ([…], time 7 day): 5.5 g/dL
gamma-GTP ([…], time 7 day): 2.6 IU/L
A/G ([…], time 14 day): 1.1
ALP ([…], time 14 day): 1354 IU/L
ALT ([…], time 14 day): 40.6 IU/L
AST ([…], time 14 day): 67.4 IU/L
BUN ([…], time 14 day): 20.2 mg/dL
CRE ([…], time 14 day): 0.2 mg/dL
Ca ([…], time 14 day): 10.2 mg/dL
Cl ([…], time 14 day): 106.4 meq/L
DBIL ([…], time 14 day): 0 mg/dL
GLC ([…], time 14 day): 193.4 mg/dL
IP ([…], time 14 day): 6.9 mg/dL
K ([…], time 14 day): 4.2 meq/L
LDH ([…], time 14 day): 151.6 IU/L
Na ([…], time 14 day): 143 meq/L
PL ([…], time 14 day): 139.2 mg/dL
RALB ([…], time 14 day): 2.9 g/dL
TBIL ([…], time 14 day): 0.014 mg/dL
TC ([…], time 14 day): 64.2 mg/dL
TG ([…], time 14 day): 168 mg/dL
TP ([…], time 14 day): 5.7 g/dL
gamma-GTP ([…], time 14 day): 2 IU/L
A/G ([…], time 28 day): 1.1
ALP ([…], time 28 day): 1003.2 IU/L
ALT ([…], time 28 day): 36.4 IU/L
AST ([…], time 28 day): 62.2 IU/L
BUN ([…], time 28 day): 20 mg/dL
CRE ([…], time 28 day): 0.2 mg/dL
Ca ([…], time 28 day): 10.2 mg/dL
Cl ([…], time 28 day): 106 meq/L
DBIL ([…], time 28 day): 0 mg/dL
GLC ([…], time 28 day): 196 mg/dL
IP ([…], time 28 day): 6 mg/dL
K ([…], time 28 day): 4.1 meq/L
LDH ([…], time 28 day): 141.6 IU/L
Na ([…], time 28 day): 141.8 meq/L
PL ([…], time 28 day): 142.4 mg/dL
RALB ([…], time 28 day): 3.2 g/dL
TBIL ([…], time 28 day): 0.008 mg/dL
TC ([…], time 28 day): 68.6 mg/dL
TG ([…], time 28 day): 152.4 mg/dL
TP ([…], time 28 day): 6 g/dL
gamma-GTP ([…], time 28 day): 2.6 IU/L
